From ChEMBL document CHEMBL6074641, “Polypharmacological Drug Design Guided by Integrating Phenotypic and Restricted Fragment Docking Strategies” (J Med Chem, 2024)
The source made the active and inactive calls. The calls are words filed in the database; no cut-off is given here.

Key:
[1] = target: Cytochrome P450 2C19 (Homo sapiens, UniProt P33261); experiment: Inhibition of CYP2C19 (unknown origin) using S-mephenytoin as substrate incubated for 10 mins in presence of NADPH by LC-MS/MS analysis; format: ADME
[2] = test system: Microglia; experiment: Anti-necroptosis activity in LPS/zVAD stimulated mouse primary microglia overexpressed with ALK assessed as reversal of translucent cytoplasm by TEM analysis; format: functional, cell-based
[3] = Metabolic stability in human liver microsomes assessed as clearance at 1 uM measured upto 60 mins in presence of NADPH and UDPGA by LC-MS/MS analysis; format: ADME, Microsome; details: 1 h
[4] = test system: Microglia; experiment: Anti-necroptosis activity in LPS/zVAD stimulated mouse primary microglia overexpressed with ALK assessed as reversal of mitochondrial swelling by TEM analysis; format: functional, cell-based
[5] = test system: Mus musculus; experiment: Anti-alzheimer activity in 8 month old 3xTg mouse model assessed as reversal of transcriptomic changes in Lamc2 at 10 mg/kg, po; format: functional, organism-based
[6] = test system: Microglia; experiment: Anti-necroptosis activity in LPS/zVAD stimulated mouse primary microglia assessed as reversal of severe membrane disruption by TEM analysis; format: functional, cell-based
[7] = target: Cytochrome P450 2B6 (Homo sapiens, UniProt P20813); experiment: Inhibition of CYP2B6 (unknown origin) incubated for 10 mins in presence of NADPH by LC-MS/MS analysis; format: ADME
[8] = Cmax in C57BL/6 mouse brain at 10 mg/kg, po measured upto 24 hrs by LC-MS/MS analysis; format: ADME, organism-based

Chain of Cytochrome P450 2C19 (P33261 whole entry): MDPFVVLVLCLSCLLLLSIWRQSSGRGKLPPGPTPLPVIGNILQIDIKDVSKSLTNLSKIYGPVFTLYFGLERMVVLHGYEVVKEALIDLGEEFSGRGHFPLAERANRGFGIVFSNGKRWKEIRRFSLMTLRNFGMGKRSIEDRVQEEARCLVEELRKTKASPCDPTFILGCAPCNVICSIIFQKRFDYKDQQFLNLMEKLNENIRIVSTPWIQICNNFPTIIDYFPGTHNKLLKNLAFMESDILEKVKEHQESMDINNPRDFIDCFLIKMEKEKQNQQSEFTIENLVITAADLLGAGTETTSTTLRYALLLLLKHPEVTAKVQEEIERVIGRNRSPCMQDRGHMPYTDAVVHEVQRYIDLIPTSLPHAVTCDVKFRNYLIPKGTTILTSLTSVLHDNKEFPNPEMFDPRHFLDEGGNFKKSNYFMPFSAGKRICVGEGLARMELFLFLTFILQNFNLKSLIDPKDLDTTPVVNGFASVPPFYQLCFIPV
Chain of Cytochrome P450 2B6 (P20813 whole entry): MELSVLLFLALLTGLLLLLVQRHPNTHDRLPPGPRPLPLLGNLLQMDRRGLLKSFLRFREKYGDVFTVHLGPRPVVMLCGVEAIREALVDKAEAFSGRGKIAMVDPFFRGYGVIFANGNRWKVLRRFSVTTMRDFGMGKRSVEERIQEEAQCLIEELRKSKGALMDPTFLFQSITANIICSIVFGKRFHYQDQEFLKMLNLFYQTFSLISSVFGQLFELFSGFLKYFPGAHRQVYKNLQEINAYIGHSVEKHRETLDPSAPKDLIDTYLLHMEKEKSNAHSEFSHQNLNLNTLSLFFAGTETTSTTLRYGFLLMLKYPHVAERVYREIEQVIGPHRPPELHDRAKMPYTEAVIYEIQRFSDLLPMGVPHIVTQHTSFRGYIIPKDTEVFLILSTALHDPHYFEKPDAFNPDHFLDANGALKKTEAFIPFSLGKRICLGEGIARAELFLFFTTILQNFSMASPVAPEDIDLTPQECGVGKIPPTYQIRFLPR

IC50 [1]: 8.3 µM
CLH [3]: 7 µL/min/mg
IC50 [7]: 5.2 µM
Cmax [8]: 290 ng/mL
Structure (SMILES): Cc1cc(F)cc(Nc2ncc(Nc3ccc(SC(F)(F)F)cc3)cc2C(N)=O)c1
Activity [2]: inactive
Activity [4]: inactive
Activity [5]: Active
Activity [6]: Active
